# According to ChEMBL document CHEMBL1201862, “PubChem BioAssay data set” (2004):
# Activity calls are given as the source filed them. *1 amine or outer side, *2 acyl side, *3 side chain or, on linkers, in order; H or OH if unused. Where a SMILES comes first, the peptide text is derived from it. [ ]: non-standard residue; d: D form. X2 = CCC[C@@H](N[*:1])[C@H](C)C(=O)O[C@H](C(=O)[*:2])[C@@H](C)CC; X1 = CC(N[*:1])C(=O)C(C)(C)C(=O)[*:2]; NMeY = CN[C@@H](Cc1ccc(O)cc1)C(=O)O; NMeL = CN[C@@H](CC(C)C)C(=O)O; NMeV = CN[C@H](C(=O)O)C(C)C; NMeA = CN[C@@H](C)C(=O)O
# Legend:
# [1] = tested on: BJ; test: cells; format: functional, cell-based; details: Homo sapiens
# [2] = cytotoxicity toward DRD oncogenic fibroblasts, dose response, cell-based, non-viral oncogenic, luminescence (AID 1934); format: functional; details: Homo sapiens
# [3] = cytotoxicity in HEK-293T cells, dose response, cytotoxicity control for TCR NF-kB inhibitor project, luminescence, T-cell screen hits (AID 489026); format: functional, cell-based;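 note: cells exposed to compound about 14 hours before the viability readout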
# [4] = tested on: BJ; test: cytotoxicity toward BJ-TERT-LT-ST fibroblasts, dose response, cell-based, RAS-independent, luminescence (AID 1935); format: functional; details: Homo sapiens;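 note: BJ fibroblasts immortalized with TERT plus LT and ST oncogenes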
# [5] = tested on: BJ; test: cytotoxicity toward BJ-TERT fibroblasts, dose response, cell-based, RAS-independent, luminescence (AID 1933); format: functional; details: Homo sapiens
# [6] = target: T1, DNA repair protein RAD52 homolog (Homo sapiens, UniProt P43351); format: functional, biochemical
# T1 sequence (P43351 whole entry): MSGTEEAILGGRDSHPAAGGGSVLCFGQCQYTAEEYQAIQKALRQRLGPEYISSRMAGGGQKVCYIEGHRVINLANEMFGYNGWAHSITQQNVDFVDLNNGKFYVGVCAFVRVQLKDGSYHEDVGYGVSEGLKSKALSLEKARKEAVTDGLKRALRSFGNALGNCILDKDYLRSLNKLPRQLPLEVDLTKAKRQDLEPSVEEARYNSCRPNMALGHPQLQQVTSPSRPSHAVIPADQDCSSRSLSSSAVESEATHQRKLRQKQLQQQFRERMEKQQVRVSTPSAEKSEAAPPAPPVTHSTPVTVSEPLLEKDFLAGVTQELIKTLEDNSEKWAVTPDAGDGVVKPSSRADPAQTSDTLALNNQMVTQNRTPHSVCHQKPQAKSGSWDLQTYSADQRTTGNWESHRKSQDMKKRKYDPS
# [7] = target: T2, Short transient receptor potential channel 4 (Mus musculus, UniProt Q9QUQ5); test: mouse TRPC4 channel inhibitors, dose response, cell-based, HEK293 TRPC4/mu-opioid, Fluo-4 calcium (AID 434942); format: functional;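 note: potency of inhibitors blocking the TRPC4 calcium response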
# T2 sequence (Q9QUQ5 whole entry): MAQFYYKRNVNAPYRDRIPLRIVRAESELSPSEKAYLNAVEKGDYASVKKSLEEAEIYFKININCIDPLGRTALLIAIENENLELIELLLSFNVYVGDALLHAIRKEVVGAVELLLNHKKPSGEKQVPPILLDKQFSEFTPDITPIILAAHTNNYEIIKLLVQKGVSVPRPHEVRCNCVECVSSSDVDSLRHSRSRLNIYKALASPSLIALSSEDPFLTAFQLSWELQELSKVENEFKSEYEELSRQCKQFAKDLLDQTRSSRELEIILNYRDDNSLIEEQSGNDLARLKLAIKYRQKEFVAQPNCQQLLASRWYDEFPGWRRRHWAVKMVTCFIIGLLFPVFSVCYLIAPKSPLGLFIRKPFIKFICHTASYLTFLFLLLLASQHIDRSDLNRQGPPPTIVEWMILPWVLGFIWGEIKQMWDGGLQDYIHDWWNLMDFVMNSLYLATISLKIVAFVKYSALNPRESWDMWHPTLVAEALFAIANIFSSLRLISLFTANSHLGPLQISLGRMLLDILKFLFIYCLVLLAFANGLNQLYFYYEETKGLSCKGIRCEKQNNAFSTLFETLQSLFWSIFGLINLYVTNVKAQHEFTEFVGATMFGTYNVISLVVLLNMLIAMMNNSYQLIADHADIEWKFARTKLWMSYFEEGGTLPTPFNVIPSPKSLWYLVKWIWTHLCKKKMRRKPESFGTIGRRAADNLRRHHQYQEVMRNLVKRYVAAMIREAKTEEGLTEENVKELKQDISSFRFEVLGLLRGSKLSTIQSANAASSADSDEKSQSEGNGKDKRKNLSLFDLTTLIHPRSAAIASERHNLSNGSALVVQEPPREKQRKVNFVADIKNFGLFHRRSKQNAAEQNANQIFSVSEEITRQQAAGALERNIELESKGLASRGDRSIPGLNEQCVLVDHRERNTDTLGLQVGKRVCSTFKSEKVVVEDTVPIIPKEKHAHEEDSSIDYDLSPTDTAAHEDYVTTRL
# [8] = tested on: Vero; test: cells; format: functional, cell-based; details: Chlorocebus sabaeus
# [9] = tested on: Vero; test: cells; format: functional; details: Chlorocebus sabaeus
# [10] = target: T3, Protein RecA (Mycobacterium tuberculosis, UniProt P9WHJ3); test: Fluorescence Cell-Free Homogeneous Dose Retest to Identify Inhibitors of RecA-Intein Splicing Activity. [Related pubchem assays (depositor defined):AID2097, AID2223, AID489010, AID492950]; format: functional
# T3 sequence (P9WHJ3 whole entry): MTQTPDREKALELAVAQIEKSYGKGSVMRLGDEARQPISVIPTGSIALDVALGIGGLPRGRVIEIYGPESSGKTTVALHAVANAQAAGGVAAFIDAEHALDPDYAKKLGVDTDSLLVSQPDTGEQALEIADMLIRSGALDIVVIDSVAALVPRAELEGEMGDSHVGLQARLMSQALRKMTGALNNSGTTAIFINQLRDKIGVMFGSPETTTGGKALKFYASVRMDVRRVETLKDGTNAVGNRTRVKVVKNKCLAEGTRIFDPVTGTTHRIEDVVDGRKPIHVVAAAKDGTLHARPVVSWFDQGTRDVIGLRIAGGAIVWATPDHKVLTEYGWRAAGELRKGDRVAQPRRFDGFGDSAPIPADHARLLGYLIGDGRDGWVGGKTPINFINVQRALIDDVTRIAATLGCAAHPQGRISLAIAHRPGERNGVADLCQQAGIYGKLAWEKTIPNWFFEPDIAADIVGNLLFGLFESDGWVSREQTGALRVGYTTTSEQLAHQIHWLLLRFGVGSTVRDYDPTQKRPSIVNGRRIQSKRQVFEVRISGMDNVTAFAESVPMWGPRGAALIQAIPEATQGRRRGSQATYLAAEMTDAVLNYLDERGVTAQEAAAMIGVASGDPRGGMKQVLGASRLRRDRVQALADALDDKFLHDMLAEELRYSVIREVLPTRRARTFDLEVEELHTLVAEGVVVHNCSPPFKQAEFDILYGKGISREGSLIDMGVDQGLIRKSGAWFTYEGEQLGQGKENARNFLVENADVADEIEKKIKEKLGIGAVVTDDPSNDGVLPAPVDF
# [11] = target: T4, Replicative DNA helicase DnaB (Mycobacterium tuberculosis, UniProt P9WMR3); test: DnaB intein splicing inhibitors, dose response, biochemical, cell-free fluorescence (AID 449749); format: functional
# T4 sequence (P9WMR3 whole entry): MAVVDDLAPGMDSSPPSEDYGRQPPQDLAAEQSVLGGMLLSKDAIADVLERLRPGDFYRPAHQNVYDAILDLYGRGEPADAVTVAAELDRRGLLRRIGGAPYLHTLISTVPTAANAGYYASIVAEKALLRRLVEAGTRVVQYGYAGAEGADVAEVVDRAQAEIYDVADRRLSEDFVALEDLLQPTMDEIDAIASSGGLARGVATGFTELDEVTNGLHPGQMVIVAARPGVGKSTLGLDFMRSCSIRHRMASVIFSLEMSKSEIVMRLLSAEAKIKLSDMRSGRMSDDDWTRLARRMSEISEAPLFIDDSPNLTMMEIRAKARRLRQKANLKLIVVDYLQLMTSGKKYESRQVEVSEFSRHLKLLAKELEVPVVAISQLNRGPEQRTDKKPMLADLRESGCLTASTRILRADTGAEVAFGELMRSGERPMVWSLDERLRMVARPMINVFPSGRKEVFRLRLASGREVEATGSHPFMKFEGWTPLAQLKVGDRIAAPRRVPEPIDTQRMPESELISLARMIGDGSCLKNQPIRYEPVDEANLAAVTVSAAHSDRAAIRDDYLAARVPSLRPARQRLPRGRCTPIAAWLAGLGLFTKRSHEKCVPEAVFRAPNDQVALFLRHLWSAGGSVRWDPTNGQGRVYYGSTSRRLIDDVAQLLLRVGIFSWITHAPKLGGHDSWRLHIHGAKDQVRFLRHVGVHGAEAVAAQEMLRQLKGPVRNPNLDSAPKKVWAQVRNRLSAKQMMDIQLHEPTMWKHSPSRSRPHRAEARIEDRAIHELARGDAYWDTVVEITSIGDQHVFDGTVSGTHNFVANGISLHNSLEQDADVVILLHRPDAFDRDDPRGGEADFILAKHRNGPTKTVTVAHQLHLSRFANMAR
# [12] = target: T5, Microphthalmia-associated transcription factor (Homo sapiens, UniProt O75030); test: TRPM1 promoter luciferase signal decrease, dose response, MITF inhibitor project, cell-based, SK-MEL-5, cherry-picked, set 3 (AID 493073); format: functional
# T5 sequence (O75030 whole entry): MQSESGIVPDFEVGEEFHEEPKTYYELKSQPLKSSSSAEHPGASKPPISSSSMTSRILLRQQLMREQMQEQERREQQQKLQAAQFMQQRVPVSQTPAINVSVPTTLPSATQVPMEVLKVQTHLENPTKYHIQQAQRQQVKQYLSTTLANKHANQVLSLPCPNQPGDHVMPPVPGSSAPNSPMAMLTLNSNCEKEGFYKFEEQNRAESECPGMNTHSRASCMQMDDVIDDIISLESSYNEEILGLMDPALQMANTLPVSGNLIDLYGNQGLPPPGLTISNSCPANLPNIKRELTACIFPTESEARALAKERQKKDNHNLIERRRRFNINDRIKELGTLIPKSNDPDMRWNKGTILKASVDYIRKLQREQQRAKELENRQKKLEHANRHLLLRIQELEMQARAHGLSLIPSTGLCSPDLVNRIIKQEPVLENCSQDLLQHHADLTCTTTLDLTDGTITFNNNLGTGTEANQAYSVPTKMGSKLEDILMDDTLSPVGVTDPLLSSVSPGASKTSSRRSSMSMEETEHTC
# [13] = microbe, parasite or virus in culture; format: functional; details: Mycobacterium tuberculosis
# [14] = target: T2, Short transient receptor potential channel 4; test: mouse TRPC4 channel activators, dose response, cell-based, HEK293 TRPC4/mu-opioid, Fluo-4 calcium (AID 434937); format: functional
structure (smiles),measurement,setting,value
COC(=O)c1[nH]c2c(c1C)C(=O)CC(c1cccc(OC)c1)C2 (stereo unspecified),EC50,[1],1.62 µM (active)
same,EC50,[2],0.619 µM (active)
same,IC50,[3],> 80 µM (inactive)
same,EC50,[4],0.665 µM (active)
same,EC50,[5],0.773 µM (active)
CCOc1ccc2c(C)nc(NC3=NC(C)=CC(C)(C)N3)nc2c1,AC50,[6],4.06 µM (active)
same,EC50,[7],1.68 µM (active)
Cc1cc(N2CCN(Cc3nc(-c4ccc(Cl)cc4)oc3C)CC2)cc(C)n1,IC50,[8],23.7 µM (active)
same,CC50,[9],> 25 µM (active)
Cc1ccc2c(c1)Oc1ccc(NC(=O)CCl)cc1C(=O)N2,EC50,[10],4.53 µM (active)
same,AC50,[11],15.6 µM (active)
same,AC50,[12],10.1 µM (active)
same,EC50,[1],2.88 µM (inconclusive)
same,EC50,[2],6.28 µM (active)
same,IC50,[3],17.3 µM (active)
same,CC50,[13],2.96 µM (active)
same,EC50,[4],4.2 µM (inconclusive)
same,EC50,[5],2.99 µM (active)
CCOc1ccccc1N(CC)C(=O)c1nn(C)c2c1CSc1ccccc1-2,EC50,[7],2.99 µM (active)
COc1cccc(-c2nn(-c3ccccc3)cc2CN(C)C(C)c2ccncn2)c1 (stereo unspecified),EC50,[14],6.68 µM (active)
same,EC50,[7],2.99 µM (active)
CCC[C@H]1NC(=O)[C@H](C)N(C)C(=O)C(C)(C)C(=O)C(C)NC(=O)[C@H](Cc2ccc(OC)cc2)N(C)C(=O)[C@H](C(C)C)N(C)C(=O)CNC(=O)[C@H](CC(C)C)N(C)C(=O)CNC(=O)[C@H]([C@@H](C)CC)OC(=O)[C@H]1C (stereo partly specified) (cyclo(G[NMeL]G[NMeV][NMeY](Me)[X1][NMeA][X2])),IC50,[3],> 80 µM (inactive)
CCCN(CCC)C1=CC(=[N+]2CCCC2)CC(C)(C)C1,AC50,[12],2.02 µM (active)
same,IC50,[3],> 80 µM (inactive)
c1ccc2c(N3CCCCC3)nc(N3CCOCC3)nc2c1,EC50,[7],1.88 µM (active)
CC(=O)Nc1ccc(S(=O)(=O)N2CCSc3ccccc32)cc1,IC50,[3],> 80 µM (inactive)
